Experimental data published in patent US20230072683A1, “PYRIDO-PYRIMIDIN DERIVATIVES AND PHARMACEUTICAL COMPOSITION, FOR USE IN PREVENTING OR TREATING PI3 KINASE RELATED DISEASES, COMPRISING SAME AS ACTIVE INGREDIENT” (BORYUNG PHARMACEUTICAL CO., LTD, priority 2019, published 2023).
Where two headings read alike, the source gives them in different places.

Assays:
[1] = target: PI3K-δ (PI3K(p1108/p857) (h)) (Homo sapiens, UniProt O00329); experiment: Evaluation of inhibitory activity against PI3K-δ (HTRF kinase assay); assay type: biochemical; settings: for inhibition at 0.01 µM: compound concentration 0.01 μM, read-out: EXP_VALUE(% Inhibition) PI3K-δ 0.01 μM; for inhibition at 0.1 µM: read-out: EXP_VALUE(% Inhibition) PI3K-δ 0.1 μM
In short: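 HTRF read-out (665/620 nm ratio ×10000) used Eu-labelled anti-GST, GST-tagged GRP1 PH domain and streptavidin-allophycocyanin after EDTA/PIP3 stop.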

DNA-PK(h) = DNA-PK(h) (Homo sapiens, UniProt P78527); experiment: Evaluation of inhibitory activity against DNA-PK (HTRF kinase assay, GST-cMyc-p53 substrate); assay type: biochemical; settings: for inhibition at 0.01 µM: compound concentration 0.01 μM, read-out: EXP_VALUE(% Inhibition) DNA-PK(h) 0.01 μM; for inhibition at 0.1 µM: read-out: EXP_VALUE(% Inhibition) DNA-PK(h) 0.1 μM
In short: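 p53 Ser15 phosphorylation by human DNA-PK was measured by time-resolved FRET ratio (665/620 nm ×10000) using Eu-labelled anti-phospho-Ser15 and d2 anti-GST antibodies. Substrate GST-cMyc-p53 at 50 μM; Mg/ATP-initiated, 30 min at room temperature, EDTA stop.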

Chain of PI3K-δ (PI3K(p1108/p857) (h)) (O00329 whole entry, the tested form may be a part): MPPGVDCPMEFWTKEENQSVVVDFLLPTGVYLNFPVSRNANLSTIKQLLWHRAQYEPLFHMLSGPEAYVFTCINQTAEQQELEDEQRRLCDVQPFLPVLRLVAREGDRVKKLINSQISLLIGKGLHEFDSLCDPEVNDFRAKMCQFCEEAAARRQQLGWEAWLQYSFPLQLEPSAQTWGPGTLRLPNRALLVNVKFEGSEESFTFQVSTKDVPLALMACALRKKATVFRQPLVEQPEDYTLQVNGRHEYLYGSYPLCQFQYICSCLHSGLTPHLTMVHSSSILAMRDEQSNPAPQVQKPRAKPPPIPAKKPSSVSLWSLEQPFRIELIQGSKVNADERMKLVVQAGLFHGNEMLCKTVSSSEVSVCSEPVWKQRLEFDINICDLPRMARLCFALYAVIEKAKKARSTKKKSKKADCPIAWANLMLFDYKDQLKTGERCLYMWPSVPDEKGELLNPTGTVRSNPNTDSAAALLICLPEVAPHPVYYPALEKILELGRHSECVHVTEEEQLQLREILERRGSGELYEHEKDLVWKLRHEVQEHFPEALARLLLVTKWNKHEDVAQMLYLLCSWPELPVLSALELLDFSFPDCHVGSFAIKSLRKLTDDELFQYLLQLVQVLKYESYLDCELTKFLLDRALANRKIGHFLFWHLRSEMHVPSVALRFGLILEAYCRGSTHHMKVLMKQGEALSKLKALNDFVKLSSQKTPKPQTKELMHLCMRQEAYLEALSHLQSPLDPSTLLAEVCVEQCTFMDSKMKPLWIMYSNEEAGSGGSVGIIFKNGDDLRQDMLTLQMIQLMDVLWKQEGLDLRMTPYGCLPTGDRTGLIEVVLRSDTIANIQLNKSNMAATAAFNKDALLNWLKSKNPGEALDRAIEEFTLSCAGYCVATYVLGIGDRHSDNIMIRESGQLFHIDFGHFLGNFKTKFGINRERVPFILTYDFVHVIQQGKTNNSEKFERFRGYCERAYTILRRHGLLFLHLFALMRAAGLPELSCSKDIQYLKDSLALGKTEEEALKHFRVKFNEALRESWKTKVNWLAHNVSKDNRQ
Chain of PI3K-δ (PI3K(p1108/p857) (h)) (P27986 whole entry partner, the tested form may be a part): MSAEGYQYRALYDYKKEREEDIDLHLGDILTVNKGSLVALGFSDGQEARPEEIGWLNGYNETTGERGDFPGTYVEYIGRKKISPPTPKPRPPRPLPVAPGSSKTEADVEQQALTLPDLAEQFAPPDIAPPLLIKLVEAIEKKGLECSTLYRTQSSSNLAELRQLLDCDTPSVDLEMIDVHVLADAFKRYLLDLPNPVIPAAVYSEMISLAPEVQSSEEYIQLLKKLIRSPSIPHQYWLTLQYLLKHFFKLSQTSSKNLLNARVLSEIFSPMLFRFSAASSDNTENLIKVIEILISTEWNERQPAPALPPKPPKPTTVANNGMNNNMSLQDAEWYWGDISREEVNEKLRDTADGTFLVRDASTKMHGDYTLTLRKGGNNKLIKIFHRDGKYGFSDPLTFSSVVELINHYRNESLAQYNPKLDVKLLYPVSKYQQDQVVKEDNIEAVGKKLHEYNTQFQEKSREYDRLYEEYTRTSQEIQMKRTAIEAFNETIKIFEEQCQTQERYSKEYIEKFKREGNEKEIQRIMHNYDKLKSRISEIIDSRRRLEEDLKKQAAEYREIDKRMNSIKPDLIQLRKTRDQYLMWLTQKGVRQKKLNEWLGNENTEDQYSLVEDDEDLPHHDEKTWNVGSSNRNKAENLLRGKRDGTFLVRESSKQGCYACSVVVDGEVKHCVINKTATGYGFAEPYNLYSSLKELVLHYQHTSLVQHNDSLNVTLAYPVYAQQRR

SMILES | inhibition at 0.01 µM [1] [%] | inhibition at 0.01 µM (DNA-PK(h)) [%] | inhibition at 0.1 µM ([1]; compound concentration 0.1 μM) [%] | inhibition at 0.1 µM (DNA-PK(h); compound concentration 0.1 μM) [%] | inhibition at 0.1 µM ([1]; compound at 0.1 μM) [%] | inhibition at 0.1 µM (DNA-PK(h); compound at 0.1 μM) [%]
COc1ncc(-c2cccc3c(Cl)c([C@H](C)Nc4ncnc5[nH]ccc(=O)c45)n(-c4ccccc4)c(=O)c23)cc1C#N [Example 229, (S)-5-(4-chloro-1-oxo-3-(1-((5-oxo-5,8-dihydropyrido[2,3-d]pyrimidin-4-yl)amino)ethyl)-2-phenyl-1,2-dihydroisoquinolin-8-yl)-2-methoxynicotinonitrile] | 68 | 45 |  |  |  | 
C[C@H](Nc1ncnc2[nH]ccc(=O)c12)c1c(Cl)c2cccc(-c3ccc([Si](C)(C)C)cc3)c2c(=O)n1-c1ccccc1 [Example 178, (S)-4-((1-(4-chloro-1-oxo-2-phenyl-8-(4-(trimethylsilyl)phenyl)-1,2-dihydroisoquinolin-3-yl)ethyl)amino)pyrido[2,3-d]pyrimidin-5(8H)-one] | 9 | -4 |  |  |  | 
CC(C)Oc1ncc(-c2cccc3c(Cl)c([C@H](C)Nc4ncnc5[nH]ccc(=O)c45)n(-c4ccccc4)c(=O)c23)cn1 [Example 182, (S)-4-((1-(4-chloro-8-(2-isopropoxypyrimidin-5-yl)-1-oxo-2-phenyl-1,2-dihydroisoquinolin-3-yl)ethyl)amino)pyrido[2,3-d]pyrimidin-5(8H)-one] | 85 | 64 |  |  |  | 
C[C@H](Nc1ncnc2[nH]ccc(=O)c12)c1c(Cl)c2cccc(-c3ccc(C(N)=O)nc3)c2c(=O)n1-c1ccccc1 [Example 201, (S)-5-(4-chloro-1-oxo-3-(1-((5-oxo-5,8-dihydropyrido[2,3-d]pyrimidin-4-yl)amino)ethyl)-2-phenyl-1,2-dihydroisoquinolin-8-yl) picolinamide] | 80 | 73 |  |  |  | 
Cc1ccc(F)cc1-c1cccc2c(Cl)c([C@H](C)Nc3ncnc4[nH]ccc(=O)c34)n(-c3ccccc3)c(=O)c12 [Example 127, (S)-4-((1-(4-chloro-8-(5-fluoro-2-methylphenyl)-1-oxo-2-phenyl-1,2-dihydroisoquinolin-3-yl)ethyl)amino)pyrido[2,3-d]pyrimidin-5(8H)-one] | 89 | 38 | 92 | 81 |  | 
C[C@H](Nc1ncnc2[nH]ccc(=O)c12)c1c(Cl)c2cccc(CN3CCOCC3)c2c(=O)n1-c1ccccc1 [Example 245, (S)-4-((1-(4-chloro-8-(morpholinomethyl)-1-oxo-2-phenyl-1,2-dihydroisoquinolin-3-yl)ethyl)amino)pyrido[2,3-d]pyrimidin-5(8H)-one] | 52 | 43 |  |  |  | 
C[C@H](Nc1ncnc2[nH]ccc(=O)c12)c1cc2cccc(-c3ccc(F)cc3)c2c(=O)n1-c1ccccc1 [Example 14, (S)-4-((1-(8-(4-fluorophenyl)-1-oxo-2-phenyl-1,2-dihydroisoquinolin-3-yl)ethyl)amino)pyrido[2,3-d]pyrimidin-5(8H)-one] | 105 | 8 | 107 | 27 |  | 
Cc1ccc(-c2cccc3c(Br)c([C@H](C)Nc4ncnc5[nH]ccc(=O)c45)n(-c4ccccc4)c(=O)c23)cn1 [Example 17, (S)-4-((1-(4-bromo-8-(6-methylpyridin-3-yl)-1-oxo-2-phenyl-1,2-dihydroisoquinolin-3-yl)ethyl)amino)pyrido[2,3-d]pyrimidin-5(8H)-one] | 99 | 70 | 97 | 94 |  | 
C[C@H](Nc1ncnc2[nH]ccc(=O)c12)c1c(Cl)c2cccc(-c3ccc(N(C)C)nc3)c2c(=O)n1-c1ccccc1 [Example 86, (S)-4-((1-(4-chloro-8-(6-(dimethylamino)pyridin-3-yl)-1-oxo-2-phenyl-1,2-dihydroisoquinolin-3-yl)ethyl)amino)pyrido[2,3-d]pyrimidin-5(8H)-one] | 67 | 72 | 94 | 95 |  | 
C[C@H](Nc1ncnc2[nH]ccc(=O)c12)c1c(Cl)c2cccc(C3=CCCC3)c2c(=O)n1-c1ccccc1 [Example 156, (S)-4-((1-(4-chloro-8-(cyclopent-1-en-1-yl)-1-oxo-2-phenyl-1,2-dihydroisoquinolin-3-yl)ethyl)amino)pyrido[2,3-d]pyrimidin-5(8H)-one] | 82 | 42 |  |  |  | 
C[C@H](Nc1ncnc2[nH]ccc(=O)c12)c1c(Cl)c2cccc(-c3ccc(N4CCCC4)cc3)c2c(=O)n1-c1ccccc1 [Example 87, (S)-4-((1-(4-chloro-1-oxo-2-phenyl-8-(4-(pyrrolidin-1-yl)phenyl)-1,2-dihydroisoquinolin-3-yl)ethyl)amino)pyrido[2,3-d]pyrimidin-5(8H)-one] | 38 | 31 | 83 | 79 |  | 
COc1cc(-c2cccc3c(Cl)c([C@H](C)Nc4ncnc5[nH]ccc(=O)c45)n(-c4ccccc4)c(=O)c23)cc(OC)c1F [Example 154, (S)-4-((1-(4-chloro-8-(4-fluoro-3,5-dimethoxyphenyl)-1-oxo-2-phenyl-1,2-dihydroisoquinolin-3-yl)ethyl)amino)pyrido[2,3-d]pyrimidin-5(8H)-one] | 89 | 71 |  |  |  | 
CCN(CC)c1ncc(-c2cccc3c(Cl)c([C@H](C)Nc4ncnc5[nH]ccc(=O)c45)n(-c4ccccc4)c(=O)c23)cn1 [Example 217, (S)-4-((1-(4-chloro-8-(2-(diethylamino)pyrimidin-5-yl)-1-oxo-2-phenyl-1,2-dihydroisoquinolin-3-yl)ethyl)amino)pyrido[2,3-d]pyrimidin-5(8H)-one] | 71 | 66 |  |  |  | 

Next, values leading:

inhibition at 0.01 µM [1] [%] | inhibition at 0.01 µM (DNA-PK(h)) [%] | inhibition at 0.1 µM ([1]; compound concentration 0.1 μM) [%] | inhibition at 0.1 µM (DNA-PK(h); compound concentration 0.1 μM) [%] | inhibition at 0.1 µM ([1]; compound at 0.1 μM) [%] | inhibition at 0.1 µM (DNA-PK(h); compound at 0.1 μM) [%] | SMILES
3 | -2 | 19 | 35 |  |  | C[C@H](Nc1ncnc2[nH]ccc(=O)c12)c1c(Cl)c2cccc(N3CCC[C@H]3CN3CCCC3)c2c(=O)n1-c1ccccc1 [Example 338, 4-(((S)-1-(4-chloro-1-oxo-2-phenyl-8-((S)-2-(pyrrolidin-1-ylmethyl)pyrrolidin-1-yl)-1,2-dihydroisoquinolin-3-yl)ethyl)amino)pyrido[2,3-d]pyrimidin-5(8H)-one]
10 | 0 |  |  |  |  | COc1ccc(Nc2cccc3c(Cl)c([C@H](C)Nc4ncnc5[nH]ccc(=O)c45)n(-c4ccccc4)c(=O)c23)cc1 [Example 345, (S)-4-((1-(4-chloro-8-((4-methoxyphenyl)amino)-1-oxo-2-phenyl-1,2-dihydroisoquinolin-3-yl)ethyl)amino)pyrido[2,3-d]pyrimidin-5(8H)-one]
 |  |  |  | 24 | 18 | CC[S@@](=N)(=O)c1cccc2c(Cl)c([C@H](C)Nc3ncnc4[nH]ccc(=O)c34)n(-c3ccccc3)c(=O)c12 [Example 435, 4-(((S)-1-(4-chloro-8-((R)-ethylsulfonimidoyl)-1-oxo-2-phenyl-1,2-dihydroisoquinolin-3-yl)ethyl)amino)pyrido[2,3-d]pyrimidin-5(8H)-one]
69 | 11 | 98 | 69 |  |  | C[C@H](Nc1ncnc2[nH]ccc(=O)c12)c1c(Cl)c2cccc(N(C)C)c2c(=O)n1-c1ccccc1 [Example 249, (S)-4-((1-(4-chloro-8-(dimethylamino)-1-oxo-2-phenyl-1,2-dihydroisoquinolin-3-yl)ethyl)amino)pyrido[2,3-d]pyrimidin-5(8H)-one]
50 | 45 | 91 | 89 |  |  | C[C@H](Nc1ncnc2[nH]ccc(=O)c12)c1c(Cl)c2cccc(-c3ncon3)c2c(=O)n1-c1ccccc1 [Example 351, (S)-4-((1-(4-chloro-8-(1,2,4-oxadiazol-3-yl)-1-oxo-2-phenyl-1,2-dihydroisoquinolin-3-yl)ethyl)amino)pyrido[2,3-d]pyrimidin-5(8H)-one]
85 | 79 |  |  |  |  | CNc1ccc(-c2cccc3c(Cl)c([C@H](C)Nc4ncnc5[nH]ccc(=O)c45)n(-c4ccccc4)c(=O)c23)cn1 [Example 246, (S)-4-((1-(4-chloro-8-(6-(methylamino)pyridin-3-yl)-1-oxo-2-phenyl-1,2-dihydroisoquinolin-3-yl)ethyl)amino)pyrido[2,3-d]pyrimidin-5(8H)-one]
2 | 0 | 10 | 4 |  |  | C[C@H](Nc1ncnc2[nH]ccc(=O)c12)c1c(Cl)c2cccc(Sc3ccc(Cl)cc3)c2c(=O)n1-c1ccccc1 [Example 371, (S)-4-((1-(4-chloro-8-((4-chlorophenyl)thio)-1-oxo-2-phenyl-1,2-dihydroisoquinolin-3-yl)ethyl)amino)pyrido[2,3-d]pyrimidin-5(8H)-one]
 |  |  |  | 92 | 16 | C[C@H](Nc1ncnc2[nH]ccc(=O)c12)c1c(Cl)c2cccc(C(=O)Nc3ccccc3)c2c(=O)n1-c1ccccc1 [Example 440, (S)-4-chloro-1-oxo-3-(1-((5-oxo-5,8-dihydropyrido[2,3-d]pyrimidin-4-yl)amino)ethyl)-N, 2-diphenyl-1,2-dihydroisoquinoline-8-carboxamide]
